Laboratory results from article PMC10535624, “Curcuminoid Chalcones: Synthesis, Stability, and New Neuroprotective and Sonosensitising Activities” (Pharmaceuticals, 2023).
Where “and” joins values, the source holds several entries; their conditions need not be identical. Equal values may be shown once.

How the values were obtained:
COX-2 = target: T1, COX-2 (Homo sapiens, UniProt P35354); experiment: Effect on COX-2 activity; assay type: biochemical; conditions: samples 3 mM/dm^3 in DMSO, 0.02 mL; mean ± SEM, n = 3
T1 sequence (P35354 18-604): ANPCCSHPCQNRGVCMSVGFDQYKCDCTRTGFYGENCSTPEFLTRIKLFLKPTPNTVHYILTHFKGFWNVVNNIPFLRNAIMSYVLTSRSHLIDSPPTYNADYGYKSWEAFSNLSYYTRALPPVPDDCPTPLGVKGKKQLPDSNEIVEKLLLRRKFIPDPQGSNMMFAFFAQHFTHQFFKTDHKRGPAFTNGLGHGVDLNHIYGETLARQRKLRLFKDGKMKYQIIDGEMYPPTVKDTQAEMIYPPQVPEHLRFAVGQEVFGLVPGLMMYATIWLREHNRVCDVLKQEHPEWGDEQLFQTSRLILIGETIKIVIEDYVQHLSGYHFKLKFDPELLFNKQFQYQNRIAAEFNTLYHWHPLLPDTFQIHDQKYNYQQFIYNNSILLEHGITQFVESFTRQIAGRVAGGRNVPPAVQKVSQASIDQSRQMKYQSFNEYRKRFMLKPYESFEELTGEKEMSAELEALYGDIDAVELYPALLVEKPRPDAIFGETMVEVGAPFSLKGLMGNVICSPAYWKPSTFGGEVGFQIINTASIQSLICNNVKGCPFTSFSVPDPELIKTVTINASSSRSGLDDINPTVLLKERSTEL

[1] = tested on: glutathione peroxidase (GPx); experiment: Effect on GPx activity; assay type: biochemical; conditions: samples 3 mM/dm^3 in DMSO; mean ± SEM, n = 3
Procedure: (§1) We decided to extend the study by measuring the compounds’ ability to inhibit glutathione reductase (GR) and GPx activities, the human cells’ main endogenous enzymatic defence systems. Therefore, we checked the influence of some curcuminoid chalcones on GR and GPx using in vitro spectroscopic methods (Table 2). Moreover, the effects of curcuminoid chalcones on CAT activity were estimated (Table 2).
(§2) The samples were dissolved in DMSO (Sigma D4540) to obtain a concentration of 3 mM/dm^3.
(§3) The analyses were performed strictly as described by Studzińska-Sroka et al..

[2] = target: T2, glutathione reductase (GR) (Homo sapiens, UniProt P00390); experiment: Effect on GR activity; assay type: biochemical; conditions: samples 3 mM/dm^3 in DMSO; mean ± SEM, n = 3
T2 sequence (P00390 44-522): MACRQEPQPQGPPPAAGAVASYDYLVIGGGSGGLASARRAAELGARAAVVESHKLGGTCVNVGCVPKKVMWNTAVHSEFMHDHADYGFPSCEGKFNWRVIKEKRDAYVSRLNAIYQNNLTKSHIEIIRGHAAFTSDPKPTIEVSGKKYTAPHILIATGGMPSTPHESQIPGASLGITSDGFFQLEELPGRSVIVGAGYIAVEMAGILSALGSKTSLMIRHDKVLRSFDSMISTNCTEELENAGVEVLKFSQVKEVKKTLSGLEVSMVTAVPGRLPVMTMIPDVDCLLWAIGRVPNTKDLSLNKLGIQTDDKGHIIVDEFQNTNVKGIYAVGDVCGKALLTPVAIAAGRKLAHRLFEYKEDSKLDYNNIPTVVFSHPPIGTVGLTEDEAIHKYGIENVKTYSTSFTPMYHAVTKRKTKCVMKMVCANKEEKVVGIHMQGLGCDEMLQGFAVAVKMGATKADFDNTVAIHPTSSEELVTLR
Procedure: as §1, §2, §3

AChE = AChE (Homo sapiens, UniProt P22303); experiment: Effect on AChE activity (modified Ellman's method); assay type: biochemical; conditions: samples 3 mM/dm^3 in DMSO, 0.035 mL; mean ± SEM, n = 3
Text: Neurodegenerative diseases are associated with the progressive damage of neurons. During the development of these diseases, there is a loss of nerve cells and a deficiency of […], serotonin, and norepinephrine levels. The ability to inhibit acetyl- (AChE) and butyrylcholinesterase (BChE) activities is seen, among others, in organophosphorus compounds, carbamate insecticides, phenoxyacetic pesticides, and hydrogen peroxide, as well as aliphatic ketones with the carbons C4–C9, e.g., 2,5-hexandione. AChE and BChE show differences in their susceptibility to inhibitors, behaviour in situations involving excess substrate, or substrate binding specificity. Unlike, other esterases, both enzymes hydrolyse choline esters at very high speeds. Thus, in our work, the modified Elman’s method was used to investigate the anti-AChE and anti-BChE effects of curcuminoid chalcone.
as §2
The analysis was performed strictly as described by Studzińska-Sroka et al., except that the volume of the tested samples added to the reaction mixture was 0.035 mL.

BChE = BChE (Homo sapiens, UniProt P06276); assay type: biochemical; conditions: samples 3 mM/dm^3 in DMSO, 0.035 mL; mean ± SEM, n = 3
[3] = Stress test: strong acid, strong base and neutral degradation (RP-HPLC); assay type: physicochemical
Procedure: Several tests were conducted using the ICH guidelines to assess the compound’s stability. In the stress test, two structural isomers of ester-type hybrid compounds were chosen to estimate the structure’s relationship to the compound’s stability. The tested substances were subjected to hydrolysis–solvolysis in neutral, acidic, and alkaline media. As solvents, water, hydrochloric acid, and sodium hydroxide were used in appropriate concentrations.
Reversed-phase HPLC was used to analyse the degree of degradation. Chromatograms were developed with DAD detection at 254 nm, 308 nm (λmax for 2), and 340 nm (λmax for 6). […] .
Then, 2.0 mL samples of the tested solutions (c ~60 µg/mL) were prepared in hydrochloric acid (0.1; 0.01 M) or sodium hydroxide solution (0.1, 0.01 M) and demineralised water. The solutions were transferred to glass vials, encapsulated, and stored in a thermal chamber at 90 °C, 40 °C, or 25 °C. After the appropriate time (Table 1), the samples were cooled, diluted with methanol (1:1), and transferred to the chromatography column.

[4] = Hydroxyl radical antioxidant capacity (HORAC); conditions: samples 1 mg/mL DMSO; mean ± SEM, n = 3
[5] = Photostability in the solid state (IR spectra of KBr tablets); conditions: for ICH Classification: light, solid phase; for Compatibility of the IR spectrum with the spectrum before irradiation: solid phase (KBr tablet)
[6] = acidic environment, HCl 0.01 M, 40 °C, 8 h
[7] = alkaline environment, NaOH 0.01 M, 25 °C, 2 h
[8] = neutral environment, H2O, 90 °C, 24 h
[9] = not protected, 1.2 × 10^6 lux·h
[10] = not protected, 6.0 × 10^6 lux·h

AChE, sequence (P22303 32-614): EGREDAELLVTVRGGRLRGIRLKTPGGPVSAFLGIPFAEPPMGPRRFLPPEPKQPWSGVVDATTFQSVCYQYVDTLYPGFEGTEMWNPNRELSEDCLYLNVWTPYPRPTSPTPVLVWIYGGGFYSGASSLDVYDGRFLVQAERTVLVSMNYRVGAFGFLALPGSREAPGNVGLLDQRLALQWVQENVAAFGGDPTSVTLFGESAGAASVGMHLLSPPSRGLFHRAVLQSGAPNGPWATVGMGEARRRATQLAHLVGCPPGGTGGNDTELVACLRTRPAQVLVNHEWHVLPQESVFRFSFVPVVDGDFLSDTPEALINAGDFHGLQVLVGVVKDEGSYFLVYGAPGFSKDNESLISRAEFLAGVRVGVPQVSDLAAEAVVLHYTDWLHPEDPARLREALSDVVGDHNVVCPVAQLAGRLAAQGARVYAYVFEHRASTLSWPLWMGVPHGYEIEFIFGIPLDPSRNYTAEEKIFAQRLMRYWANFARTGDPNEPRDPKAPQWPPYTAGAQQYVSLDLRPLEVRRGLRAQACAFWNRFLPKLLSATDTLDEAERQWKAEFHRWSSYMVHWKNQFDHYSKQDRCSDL
BChE, sequence (P06276 29-602, species assumed): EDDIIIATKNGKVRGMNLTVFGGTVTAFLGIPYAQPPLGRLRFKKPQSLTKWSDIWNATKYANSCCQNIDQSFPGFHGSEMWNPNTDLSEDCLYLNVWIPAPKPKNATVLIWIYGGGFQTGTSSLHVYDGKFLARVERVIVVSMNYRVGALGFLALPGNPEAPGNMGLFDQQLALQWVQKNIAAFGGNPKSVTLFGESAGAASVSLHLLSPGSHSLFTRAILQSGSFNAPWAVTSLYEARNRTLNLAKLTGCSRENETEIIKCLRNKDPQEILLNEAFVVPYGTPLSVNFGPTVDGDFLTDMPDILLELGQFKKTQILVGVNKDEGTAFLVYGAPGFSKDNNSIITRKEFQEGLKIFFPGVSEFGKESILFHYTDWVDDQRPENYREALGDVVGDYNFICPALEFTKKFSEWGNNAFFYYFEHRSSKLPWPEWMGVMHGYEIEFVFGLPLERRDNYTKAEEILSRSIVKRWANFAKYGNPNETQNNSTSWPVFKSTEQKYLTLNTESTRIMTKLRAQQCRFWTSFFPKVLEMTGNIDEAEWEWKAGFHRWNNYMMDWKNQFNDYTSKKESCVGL

SMILES: COc1cc(C=CC(=O)c2ccccc2)ccc1OC(=O)C(C)c1ccc(CC(C)C)cc1 (centres unmarked) [Compound 2, 2-Methoxy-4-(3-oxo-3-phenylprop-1-en-1-yl)phenyl-2-(4-isobutylphenyl)-propionate]
- COX-2 Inhibition (%) (COX-2): -
- GPx Inhibition (%) [1]: 17.0 ± 3.4%
- GPx activity (NADPH consumption rate) [1]: 33.8 ± 6.8 nmol Depleted NADPH/min
- GR Inhibition (%) [2]: 27.1 ± 4.0%
- GR activity (NADPH consumption rate) [2]: 1018 ± 150 nmol Depleted NADPH/min
- AChE % (inhibition) (AChE): 90.5 ± 4.2%
- AChE, Equivalent Concentration of Reference Compound Magniflorine (AChE): 0.34 ± 0.02 µg/mL
- AChE, Equivalent Concentration of Reference Compound Rivastigmine (AChE): 0.52 ± 0.02 µg/mL
- BChE % (inhibition) (BChE): 89.7 ± 4.8%
- BChE, Equivalent Concentration of Reference Compound Magniflorine (BChE): 0.35 ± 0.02 µg/mL
- BChE, Equivalent Concentration of Reference Compound Rivastigmine (BChE): 0.26 ± 0.01 µg/mL
- % Decomposition ([3]; H2O, 90 °C, 24 h): 24.4%
- Ct ([3]; H2O, 90 °C, 24 h): 46.3 µg/mL
- % Decomposition ([3]; HCl 0.01 M, 40 °C, 8 h): 44% and 43.8%
- Ct ([3]; HCl 0.01 M, 40 °C, 8 h): 33.7 µg/mL
- % Decomposition ([3]; HCl 0.1 M, 90 °C, 16 h): 91.8%
- Ct ([3]; HCl 0.1 M, 90 °C, 16 h): 5.0 µg/mL
- % Decomposition ([3]; NaOH 0.01 M, 25 °C, 2 h): 100%
- Ct ([3]; NaOH 0.01 M, 25 °C, 2 h): 0 µg/mL
- % Decomposition ([3]; NaOH 0.1 M, 90 °C, 16 h): 100%
- Ct ([3]; NaOH 0.1 M, 90 °C, 16 h): 0 µg/mL
- ICH Classification [3, 6]: very unstable
- ICH Classification [3, 7]: extremely unstable
- ICH Classification [3, 8]: unstable
- HORAC, Gallic Acid Equivalents [4]: 24.2 ± 2.3 µg/mL
- ICH Classification [5]: Photolabile
- Compatibility of the IR spectrum with the spectrum before irradiation [5, 9]: 0.9404
- Compatibility of the IR spectrum with the spectrum before irradiation [5, 10]: 0.9017
- Compatibility of the IR spectrum with the spectrum before irradiation ([5]; protected, 1.2 × 10^6 lux·h): 0.9995
- Compatibility of the IR spectrum with the spectrum before irradiation ([5]; protected, 6.0 × 10^6 lux·h): 0.9994

SMILES: COc1ccc(C=CC(=O)c2ccccc2)cc1OC(=O)C(C)c1ccc(CC(C)C)cc1 (centres unmarked) [Compound 6, 2-Methoxy-5-(3-oxo-3-phenylprop-1-en-1-yl)phenyl-2-(4-isobutylphenyl)-propionate]
- COX-2 Inhibition (%) (COX-2): -
- GPx Inhibition (%) [1]: 17.4 ± 1.7%
- GPx activity (NADPH consumption rate) [1]: 34.6 ± 3.3 nmol Depleted NADPH/min
- GR Inhibition (%) [2]: did not inhibit and -
- AChE % (inhibition) (AChE): 73.7 ± 5.1%
- AChE, Equivalent Concentration of Reference Compound Magniflorine (AChE): 0.28 ± 0.02 µg/mL
- AChE, Equivalent Concentration of Reference Compound Rivastigmine (AChE): 0.42 ± 0.03 µg/mL
- BChE % (inhibition) (BChE): 77.3 ± 5.2%
- BChE, Equivalent Concentration of Reference Compound Magniflorine (BChE): 0.30 ± 0.02 µg/mL
- BChE, Equivalent Concentration of Reference Compound Rivastigmine (BChE): 0.22 ± 0.02 µg/mL
- % Decomposition ([3]; H2O, 90 °C, 24 h): 23.9%
- Ct ([3]; H2O, 90 °C, 24 h): 50.9 µg/mL
- % Decomposition ([3]; HCl 0.01 M, 40 °C, 8 h): 18% and 17.8%
- Ct ([3]; HCl 0.01 M, 40 °C, 8 h): 49.3 µg/mL
- % Decomposition ([3]; HCl 0.1 M, 90 °C, 16 h): 97.8%
- Ct ([3]; HCl 0.1 M, 90 °C, 16 h): 1.5 µg/mL
- % Decomposition ([3]; NaOH 0.01 M, 25 °C, 2 h): 100%
- Ct ([3]; NaOH 0.01 M, 25 °C, 2 h): 0 µg/mL
- % Decomposition ([3]; NaOH 0.1 M, 90 °C, 16 h): 100%
- Ct ([3]; NaOH 0.1 M, 90 °C, 16 h): 0 µg/mL
- ICH Classification [3, 6]: very unstable
- ICH Classification [3, 7]: extremely unstable
- ICH Classification [3, 8]: unstable
- HORAC, Gallic Acid Equivalents [4]: 20.4 ± 3.0 µg/mL
- ICH Classification [5]: Photolabile
- Compatibility of the IR spectrum with the spectrum before irradiation [5, 9]: 0.9962
- Compatibility of the IR spectrum with the spectrum before irradiation [5, 10]: 0.9752
- Compatibility of the IR spectrum with the spectrum before irradiation ([5]; protected, 1.2 × 10^6 lux·h): 0.9997
- Compatibility of the IR spectrum with the spectrum before irradiation ([5]; protected, 6.0 × 10^6 lux·h): 0.9993
